In publication PMC6212544, “Identification and Characterization of Novel CFTR Potentiators” (Frontiers in Pharmacology, 2018):

What was measured:
F508del CFTR [1] = molecular target: T1, F508del CFTR (Homo sapiens, UniProt P13569, DEL508-508); assay: TECC on corrector rescued F508del/F508del primary HBE cells; type: cell-based; parameters: endogenous in cells; host or cells: primary human bronchial epithelial cells, F508del/F508del donors (McGill University; University of North Carolina)
Method: Bronchial epithelial cells isolated from transplanted lungs from wild-type (WT), CF patients homozygous for the F508del mutation or heterozygous G551D/F508del or R334W/F508del patients, were obtained from McGill University (Montreal, Canada) and University of North Carolina (Chapel Hill, NC, United States). Cells were isolated from lungs obtained from donors undergoing a planned transplantation. These primary cells were cultured directly on type IV collagen-coated polycarbonate Transwell supports with a diameter of 6.5 mm and pore size of 0.4 μm (Costar, #3397) for 18–25 days in air liquid (ali) interface essentially as previously described ([Fulcher et al., 2005]). Trans-epithelial clamp circuit (TECC) recordings were performed using the TECC instrument developed and sold by EP Design (Bertem, Belgium). During the recording, the epithelial cells were bathed in a NaCl-Ringer solution (120 mM NaCl, 20 mM HEPES, 1.2 mM CaCl2, 1.2 mM MgCl2, 0.8 mM KH2PO4, 0.8 mM K2HPO4, 5 mM glucose, pH 7.4) on both the basolateral (640 μl) and the apical side (160 μl) and kept at 37°C. Apical amiloride was used to inhibit the endogenous ENaC currents (100 μM) while forskolin (10 μM) was applied on both the apical and basolateral sides to stimulate CFTR. All triggers and compounds used during the experiment were first dissolved in DMSO to a 1000 X concentrated solution, just prior to treatment a 10 X stock was prepared in the NaCl-Ringer solution which was used for addition of the correct concentration of trigger and or compound during the experiment. When using the F508del CFTR mutant, VX809 (3 μM) or GLPG2222 (1 μM) corrector was added on the basolateral side for 24 h to partially rescue F508del CFTR before adding the potentiator. For chronic experiments, the potentiator range was also added to the cells for 24 h and reapplied in the NaCl-ringer buffer prior to the electrophysiological recording. Measurements were done during a 20 min timeframe with recordings every 2 min. The transepithelial potential (PD) and transepithelial resistance (Rt) were measured in an open circuit and transformed to Ieq using Ohm’s law. The increase in Ieq (Δ Ieq) was used as a measure for the increased CFTR activity. EC50 values were generated by measuring impact of different concentrations of compound on Ieq in primary cells. For this purpose each transwell was treated with a different compound concentration. CFTRInh-172 was used at 10 μM to assess the specificity of the response. […] Data was fitted using a 3 parameter hill function of the form Response = Bottom + (Top-Bottom)/(1 + 10ˆ((LogEC50-concentration))) to determine EC50 values.

[2] = patients carrying the G551D mutation; ref Ramsey et al., 2011; cited from earlier work
F508del CFTR [3] = molecular target: T1, F508del CFTR; assay: Cell surface expression assay, HRP-tagged F508del CFTR in CFBe41o- cells; type: cell-based; parameters: expressed in transfected cells; conditions: 24 h co-incubation with 10 μM VX809, concentration range of potentiator
Method: CFBE41o^- TetON cells expressing HRP tagged F508del-CFTR ([Veit et al., 2012]) were seeded at a density of 4,000 cells per well in white 384-well plates (Greiner). Medium containing 500 ng/ml doxycycline was used to induce expression of the F508del-CFTR–HRP construct. After 3 days, cells were treated with corrector and/or potentiator compounds and transferred to an incubator at 33°C. On day 4, cells were washed 5 times with PBS containing Ca^2+ and Mg^2+ using a Bio-Tek plate washer and incubated with a chemiluminescent HRP substrate (SuperSignal West Pico Chemiluminescent Substrate, Thermo Scientific) for 15 min. Chemiluminescence was measured using an Envision plate reader (Perkin Elmer).

G551D CFTR = molecular target: T2, G551D CFTR (Homo sapiens, UniProt P13569, G551D); conditions: ref Jih and Hwang (2013); cited from earlier work
T2 construct: expressed in transfected cells; host or cells: HEK293, transient (jetPEI)

F508del CFTR [4] = molecular target: T1, F508del CFTR; assay: YFP halide assay, CFBe41o- cells, low temperature rescued F508del CFTR; type: cell-based; conditions: 27°C 24 h, 10 μM forskolin, read-out: EC50, potentiation of low temperature rescued F508del CFTR
Method: CFBe41o- cells were plated in black 384-well microplates at a density of 1,500 cells per well. After 24 h, cells were transduced with adenoviruses containing F508del CFTR and YFP (H148Q/I152L/) F47L using a multiplicity of infection of 30 infectious units per cell for each adenovirus. The next day, for the low temperature corrected assay, cells were incubated at 27°C for 24 h, for the chemically corrected assay cells were treated with corrector for 24 h at 37°C. On the day of analysis, cells were washed five times with Dulbecco’s Phosphate-Buffered Saline (DPBS) containing Ca^2+ and Mg^2+ (Life Technologies) using a Microplate Washer (BioTek). Then, cells were treated with 10 μM forskolin and the desired concentration of potentiator in a volume of 30 μl and the plates were incubated at room temperature for 10 min, a timepoint optimized in previous experiments showing good window (positive control/negative control > 2) and signal to background ratio. The YFP fluorescence was recorded for 2 min, starting immediately before addition of 30 μl NaI buffer (375 mM NaI, 7.5 mM KI, 1.76 mM KH2PO4, 10.1 mM Na2HPO4, 13.75 mM glucose) to the wells, using a FDSS/μCell (Hamamatsu) fluorescence reader with a 480 nm excitation filter and a 540 nm emission filter. The capacity of potentiators to increase CFTR channel function was expressed as 1-[fluorescence 36 s after NaI addition (F)/fluorescence before NaI addition (F0)], a timepoint optimized previously, resulting in an optimal signal window. Data was normalized using the formula: normalized response = 100^∗ (absolute response – negative control response)/(VX770 response – negative response) as such, VX770 response corresponds to 100. For Dose-response experiments, data was fitted using a 4 parameter hill function of the form Response = Bottom + (Top-Bottom)/(1 + 10ˆ((LogEC50-concentration)^∗HillSlope)) to determine EC50 values.

T1 sequence (P13569 with tags, fused parts or gaps DEL508-508): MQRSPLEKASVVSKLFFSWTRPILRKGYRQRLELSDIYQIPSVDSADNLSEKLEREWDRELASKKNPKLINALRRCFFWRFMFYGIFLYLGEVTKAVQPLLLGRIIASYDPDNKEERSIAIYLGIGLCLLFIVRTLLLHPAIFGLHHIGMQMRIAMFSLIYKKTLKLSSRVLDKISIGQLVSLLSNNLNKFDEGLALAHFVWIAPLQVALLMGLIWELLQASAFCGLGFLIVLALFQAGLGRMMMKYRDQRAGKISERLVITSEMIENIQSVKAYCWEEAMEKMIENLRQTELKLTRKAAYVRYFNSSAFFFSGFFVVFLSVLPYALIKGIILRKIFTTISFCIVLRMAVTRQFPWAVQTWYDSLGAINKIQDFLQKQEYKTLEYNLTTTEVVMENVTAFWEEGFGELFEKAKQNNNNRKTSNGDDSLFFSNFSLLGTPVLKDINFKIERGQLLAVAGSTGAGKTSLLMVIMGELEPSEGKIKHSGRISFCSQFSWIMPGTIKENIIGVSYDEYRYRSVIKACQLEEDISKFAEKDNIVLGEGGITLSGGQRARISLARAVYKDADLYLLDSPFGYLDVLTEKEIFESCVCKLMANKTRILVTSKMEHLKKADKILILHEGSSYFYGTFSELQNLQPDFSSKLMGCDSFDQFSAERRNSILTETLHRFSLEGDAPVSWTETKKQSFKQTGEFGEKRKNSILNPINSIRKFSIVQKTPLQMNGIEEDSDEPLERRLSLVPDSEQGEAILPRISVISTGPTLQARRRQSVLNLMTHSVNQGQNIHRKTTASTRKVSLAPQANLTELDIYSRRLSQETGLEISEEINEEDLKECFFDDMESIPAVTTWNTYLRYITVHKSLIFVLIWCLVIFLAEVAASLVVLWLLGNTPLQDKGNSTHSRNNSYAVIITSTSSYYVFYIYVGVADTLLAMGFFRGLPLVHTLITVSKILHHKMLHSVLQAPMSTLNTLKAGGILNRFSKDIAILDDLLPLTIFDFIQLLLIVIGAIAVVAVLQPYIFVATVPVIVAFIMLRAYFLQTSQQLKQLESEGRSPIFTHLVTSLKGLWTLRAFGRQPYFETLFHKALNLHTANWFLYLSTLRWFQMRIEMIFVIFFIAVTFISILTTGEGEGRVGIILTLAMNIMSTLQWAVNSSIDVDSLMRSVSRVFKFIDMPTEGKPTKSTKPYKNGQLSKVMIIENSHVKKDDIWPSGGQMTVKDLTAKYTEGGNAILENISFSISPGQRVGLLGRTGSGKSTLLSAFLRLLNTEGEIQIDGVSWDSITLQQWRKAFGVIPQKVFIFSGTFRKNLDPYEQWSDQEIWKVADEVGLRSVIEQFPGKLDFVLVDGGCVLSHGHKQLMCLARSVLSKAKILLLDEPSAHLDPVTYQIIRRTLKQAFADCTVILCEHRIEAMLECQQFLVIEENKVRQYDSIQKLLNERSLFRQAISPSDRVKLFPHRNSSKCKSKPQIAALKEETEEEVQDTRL
T2 sequence (P13569 whole entry G551D): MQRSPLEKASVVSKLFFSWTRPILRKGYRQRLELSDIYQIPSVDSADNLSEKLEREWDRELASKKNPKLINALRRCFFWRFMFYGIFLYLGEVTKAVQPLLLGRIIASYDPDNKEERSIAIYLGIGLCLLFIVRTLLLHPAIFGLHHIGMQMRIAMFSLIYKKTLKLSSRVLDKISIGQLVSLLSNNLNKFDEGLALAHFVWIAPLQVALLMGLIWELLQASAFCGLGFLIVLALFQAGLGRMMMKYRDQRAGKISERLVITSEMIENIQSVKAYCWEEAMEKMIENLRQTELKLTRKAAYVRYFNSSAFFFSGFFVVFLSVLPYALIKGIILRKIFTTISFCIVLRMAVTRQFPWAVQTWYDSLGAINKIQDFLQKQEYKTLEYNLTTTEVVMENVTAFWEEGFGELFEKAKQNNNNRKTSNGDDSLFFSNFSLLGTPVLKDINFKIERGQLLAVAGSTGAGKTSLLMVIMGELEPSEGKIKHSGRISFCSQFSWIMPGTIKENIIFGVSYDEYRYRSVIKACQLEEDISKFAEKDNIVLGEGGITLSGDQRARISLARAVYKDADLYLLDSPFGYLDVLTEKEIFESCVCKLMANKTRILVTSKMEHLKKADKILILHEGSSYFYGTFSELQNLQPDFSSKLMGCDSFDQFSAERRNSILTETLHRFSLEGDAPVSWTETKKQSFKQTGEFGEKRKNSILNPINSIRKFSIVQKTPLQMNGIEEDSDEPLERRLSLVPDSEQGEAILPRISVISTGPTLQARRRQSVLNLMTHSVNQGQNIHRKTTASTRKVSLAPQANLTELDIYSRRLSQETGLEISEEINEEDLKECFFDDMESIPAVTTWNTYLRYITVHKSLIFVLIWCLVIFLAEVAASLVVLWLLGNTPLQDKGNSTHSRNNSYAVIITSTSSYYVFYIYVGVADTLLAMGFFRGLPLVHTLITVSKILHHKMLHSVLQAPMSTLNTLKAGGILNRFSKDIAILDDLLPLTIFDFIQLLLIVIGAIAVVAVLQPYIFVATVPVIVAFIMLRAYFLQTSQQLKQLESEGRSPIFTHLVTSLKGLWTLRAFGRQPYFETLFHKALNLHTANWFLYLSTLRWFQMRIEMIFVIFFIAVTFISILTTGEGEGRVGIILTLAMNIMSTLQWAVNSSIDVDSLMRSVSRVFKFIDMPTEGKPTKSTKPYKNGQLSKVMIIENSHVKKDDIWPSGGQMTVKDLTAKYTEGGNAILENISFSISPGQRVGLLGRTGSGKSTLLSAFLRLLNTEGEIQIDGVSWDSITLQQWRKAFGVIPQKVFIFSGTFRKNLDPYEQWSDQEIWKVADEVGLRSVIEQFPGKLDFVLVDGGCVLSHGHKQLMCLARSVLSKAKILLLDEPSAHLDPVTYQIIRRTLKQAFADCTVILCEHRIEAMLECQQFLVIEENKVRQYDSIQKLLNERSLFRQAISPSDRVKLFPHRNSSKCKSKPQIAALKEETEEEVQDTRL

- EC50 (F508del CFTR [1]; VX809 3 μM 24 h, acute potentiator addition, 10 μM forskolin, read-out: EC50 on VX809 corrected F508del/F508del HBEs (TECC)): 0.0807 ± 0.0217 µM
- EC50 (F508del CFTR [4]): 0.126 ± 0.0109 µM
Compound: CC(C)(C)c1cc(C(C)(C)C)c(NC(=O)c2c[nH]c3ccccc3c2=O)cc1O [VX770, N -(2,4-Di-tert-butyl-5-hydroxyphenyl)-4-oxo-1,4-dihydroquinoline-3-carboxamide, reference compound]
- Decrease in corrected F508del CFTR channel activity in chronic versus acute setting (F508del CFTR [1]; 10 μM potentiator, corrected F508del/F508del HBE, 24 h): decrease in F508del CFTR channel activity
- Improvement of lung function [2]: 10.6%
- Effect on cell surface expression of VX809 rescued F508del CFTR (F508del CFTR [3]): reduces the level of cell surface expressed F508del CFTR at all concentrations tested
- Increase of macroscopic G551D CFTR current (G551D CFTR): 10 fold
